This test concerns the target Voltage-dependent L-type calcium channel subunit alpha-1C (Cavia porcellus, UniProt O35505). In words: Inhibition of L-type calcium channel in Cavia porcellus (guinea pig) ileal SMC assessed as inhibition of 80 mM KCl-induced current.

Each structure is given as a SMILES string.

Voltage-dependent L-type calcium channel subunit alpha-1C, sequence (O35505 whole entry): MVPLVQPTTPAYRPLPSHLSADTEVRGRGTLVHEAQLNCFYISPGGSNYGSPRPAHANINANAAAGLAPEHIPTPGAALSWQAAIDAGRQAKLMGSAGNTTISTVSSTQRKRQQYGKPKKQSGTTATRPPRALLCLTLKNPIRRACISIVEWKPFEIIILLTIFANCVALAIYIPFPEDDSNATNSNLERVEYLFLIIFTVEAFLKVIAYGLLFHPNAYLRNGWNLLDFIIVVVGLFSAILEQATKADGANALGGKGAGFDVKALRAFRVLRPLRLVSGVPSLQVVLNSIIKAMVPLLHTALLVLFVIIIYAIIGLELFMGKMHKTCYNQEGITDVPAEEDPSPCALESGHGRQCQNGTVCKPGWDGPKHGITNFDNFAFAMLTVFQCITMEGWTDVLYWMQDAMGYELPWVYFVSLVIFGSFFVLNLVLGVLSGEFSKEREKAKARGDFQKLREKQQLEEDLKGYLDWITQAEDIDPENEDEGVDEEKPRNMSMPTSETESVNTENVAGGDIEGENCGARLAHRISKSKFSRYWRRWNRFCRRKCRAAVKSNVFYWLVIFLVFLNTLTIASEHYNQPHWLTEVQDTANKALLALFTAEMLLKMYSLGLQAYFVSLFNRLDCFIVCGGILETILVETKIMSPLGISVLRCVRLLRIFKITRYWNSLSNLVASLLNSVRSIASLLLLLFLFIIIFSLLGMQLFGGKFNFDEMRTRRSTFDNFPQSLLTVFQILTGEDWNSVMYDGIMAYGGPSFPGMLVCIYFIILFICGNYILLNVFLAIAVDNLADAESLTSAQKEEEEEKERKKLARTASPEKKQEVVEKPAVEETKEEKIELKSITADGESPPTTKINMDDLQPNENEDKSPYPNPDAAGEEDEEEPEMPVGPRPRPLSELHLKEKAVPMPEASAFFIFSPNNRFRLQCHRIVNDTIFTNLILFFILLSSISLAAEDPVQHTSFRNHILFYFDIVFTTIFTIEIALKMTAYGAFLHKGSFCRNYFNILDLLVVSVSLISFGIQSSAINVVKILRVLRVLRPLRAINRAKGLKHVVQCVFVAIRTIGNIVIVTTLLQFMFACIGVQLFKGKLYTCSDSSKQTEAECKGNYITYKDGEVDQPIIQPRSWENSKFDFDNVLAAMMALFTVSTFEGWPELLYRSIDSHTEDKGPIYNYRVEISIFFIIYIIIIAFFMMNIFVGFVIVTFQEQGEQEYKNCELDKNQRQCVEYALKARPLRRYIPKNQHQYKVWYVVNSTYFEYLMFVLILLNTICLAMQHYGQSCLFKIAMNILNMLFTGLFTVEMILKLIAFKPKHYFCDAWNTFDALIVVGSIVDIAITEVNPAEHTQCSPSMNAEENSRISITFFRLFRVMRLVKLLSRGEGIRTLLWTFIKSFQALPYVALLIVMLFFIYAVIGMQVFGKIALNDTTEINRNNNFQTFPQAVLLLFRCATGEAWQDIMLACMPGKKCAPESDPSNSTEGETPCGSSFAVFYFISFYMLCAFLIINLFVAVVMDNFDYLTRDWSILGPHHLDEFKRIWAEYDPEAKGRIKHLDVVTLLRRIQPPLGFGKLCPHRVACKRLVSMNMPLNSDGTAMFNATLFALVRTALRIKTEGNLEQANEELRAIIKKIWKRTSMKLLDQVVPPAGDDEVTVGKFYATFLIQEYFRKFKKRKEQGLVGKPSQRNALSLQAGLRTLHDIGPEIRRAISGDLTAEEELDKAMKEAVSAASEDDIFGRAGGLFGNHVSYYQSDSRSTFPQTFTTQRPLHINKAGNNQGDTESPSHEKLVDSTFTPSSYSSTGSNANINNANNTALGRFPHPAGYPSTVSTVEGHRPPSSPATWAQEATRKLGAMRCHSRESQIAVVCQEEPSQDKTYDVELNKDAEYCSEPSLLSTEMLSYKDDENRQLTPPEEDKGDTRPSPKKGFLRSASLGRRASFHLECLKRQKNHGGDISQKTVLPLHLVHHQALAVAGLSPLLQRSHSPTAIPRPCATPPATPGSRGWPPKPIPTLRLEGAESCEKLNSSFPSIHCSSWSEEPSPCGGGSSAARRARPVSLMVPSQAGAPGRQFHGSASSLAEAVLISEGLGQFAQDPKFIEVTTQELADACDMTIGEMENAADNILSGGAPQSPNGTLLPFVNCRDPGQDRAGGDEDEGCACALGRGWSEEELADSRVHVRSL

In general, IC50 refers to the concentration needed to halve the response being measured. As to `CCCOC(=O)C1=C(C)NC(C)=C(C(=O)OC)C1c1[nH]c(C)nc1Cl` (stereo not drawn), the IC50 is 437 nM.

With `COC(=O)C1=C(C)NC(C)=C(C(=O)OC(C)(C)C)C1c1[nH]c(C)nc1Cl` (stereo not drawn), the IC50 was 1860 nM.

For `COC(=O)C1=C(C)NC(C)=C(C(=O)OCC2CCCCC2)C1c1[nH]c(C)nc1Cl` (stereo not drawn), the IC50 was 355 nM.

Turning to `COC(=O)C1=C(C)NC(C)=C(C(=O)OCc2ccccc2)C1c1[nH]c(C)nc1Cl` (stereo not drawn), the IC50 was 93.3 nM.

`COC(=O)C1=C(C)NC(C)=C(C(=O)OCCc2ccccc2)C1c1[nH]c(C)nc1Cl` (stereo not drawn): the IC50 is 79.4 nM.

For `CCCOC(=O)C1=C(C)NC(C)=C(C(=O)OCC)C1c1[nH]c(C)nc1Cl` (stereo not drawn), the IC50 is 407 nM.

As for `COC(=O)C1=C(C)NC(C)=C(C(=O)OC)C1c1[nH]c(C)nc1Cl`, the IC50 was 1200 nM.

Take `CCOC(=O)C1=C(C)NC(C)=C(C(=O)OCC)C1c1[nH]c(C)nc1Cl`: the IC50 was 437 nM.

For the compound `CCOC(=O)C1=C(C)NC(C)=C(C(=O)OC(C)(C)C)C1c1[nH]c(C)nc1Cl` (stereo not drawn), the IC50 is 1660 nM.

For the compound `CCOC(=O)C1=C(C)NC(C)=C(C(=O)OCC2CCCCC2)C1c1[nH]c(C)nc1Cl` (stereo not drawn), the IC50 is 513 nM.

For the compound `CC1=C(C(=O)OCc2ccccc2)C(c2nc(C)[nH]c2Cl)C(C(=O)OCc2ccccc2)=C(C)N1`, the IC50 is 41.7 nM.

`CC1=C(C(=O)OCCc2ccccc2)C(c2nc(C)[nH]c2Cl)C(C(=O)OCCc2ccccc2)=C(C)N1`: the IC50 was 0.182 nM.

With `CC1=C(C(=O)OCCCc2ccccc2)C(c2nc(C)[nH]c2Cl)C(C(=O)OCCCc2ccccc2)=C(C)N1`, the IC50 is 1.74 nM.

Take `CCOC(=O)C1=C(C)NC(C)=C(C(=O)OCc2ccccc2)C1c1[nH]c(C)nc1Cl` (stereo not drawn): the half-inhibitory concentration (IC50) is 91.2 nM.

Regarding `CCOC(=O)C1=C(C)NC(C)=C(C(=O)OCCc2ccccc2)C1c1[nH]c(C)nc1Cl` (stereo not drawn), the half-maximal inhibitory concentration (IC50) is 70.8 nM.

As to `CCCOC(=O)C1=C(C)NC(C)=C(C(=O)OCCC)C1c1[nH]c(C)nc1Cl`, the IC50 is 63.1 nM.

Regarding `CC1=C(C(=O)OC(C)C)C(c2[nH]c(C)nc2Cl)C(C(=O)OC(C)C)=C(C)N1`, the 50% inhibitory concentration (IC50) is 38 nM.

With `CC1=C(C(=O)OCC(C)C)C(c2[nH]c(C)nc2Cl)C(C(=O)OCC(C)C)=C(C)N1`, the IC50 is 95.5 nM.

Turning to `CC1=C(C(=O)OC(C)(C)C)C(c2[nH]c(C)nc2Cl)C(C(=O)OC(C)(C)C)=C(C)N1`, the half-maximal inhibitory concentration (IC50) was 4070 nM.

For `CC1=C(C(=O)OC2CCCC2)C(c2[nH]c(C)nc2Cl)C(C(=O)OC2CCCC2)=C(C)N1`, the IC50 was 97.7 nM.

Regarding `CC1=C(C(=O)OC2CCCCC2)C(c2[nH]c(C)nc2Cl)C(C(=O)OC2CCCCC2)=C(C)N1`, the IC50 is 955 nM.

With `CC1=C(C(=O)OCC2CCCCC2)C(c2[nH]c(C)nc2Cl)C(C(=O)OCC2CCCCC2)=C(C)N1`, the IC50 was 631 nM.

For `CCOC(=O)C1=C(C)NC(C)=C(C(=O)OC)C1c1[nH]c(C)nc1Cl` (stereo not drawn), the IC50 is 661 nM.

The values above are taken from ChEMBL document CHEMBL3046021, “Docking and QSAR studies of new 1,4-dihydropyridines containing 4(5)-chloro-2-methyl-5(4)-imidazolyl substituent” (Med Chem Res, 2012).
